Reference: ChEMBL document CHEMBL1136247, “Alpha-keto amides as inhibitors of histone deacetylase” (Bioorg Med Chem Lett, 2003)

How the values were obtained:
[1] = system: HT-1080; test: Compound was tested for inhibition of proliferation of HT1080 cells; type: functional, cell-based; conditions: Homo sapiens
[2] = target: Histone deacetylase (HDAC1 and HDAC2) (Homo sapiens, UniProt Q13547+Q92769); test: Inhibitory activity against mixture of histone deacetylase 1 (HDAC1) and histone deacetylase 2 (HDAC2) from nuclear extraction of K562 erythroleukemia cells.
[3] = system: MDA-MB-435; test: Compound was tested for inhibition of proliferation of MDA-435 cells; type: functional, cell-based; conditions: Homo sapiens

Molecule `CNC(=O)C(=O)CCCCCCC(=O)Nc1cccc(Oc2ccccc2)c1` has an IC50 [1] of 35000 nM, an IC50 [2] of 1041 nM and an IC50 [3] of 39000 nM.

With `CNC(=O)C(=O)CCCCCCC(=O)Nc1nc(-c2ccc3c(c2)CCCC3)cs1` the IC50 [1] was greater than 50000 nM, the IC50 [2] was 1.4 nM and the IC50 [3] was greater than 50000 nM.

For `CNC(=O)C(=O)CCCCCCSc1ccc(-c2ccccc2)cc1`, the IC50 [2] was 526 nM.

With `CNC(=O)C(=O)CCCCCCNS(=O)(=O)c1ccc(-c2ccccc2)cc1` the IC50 [2] was 241 nM.

`CNC(=O)C(=O)CCCCCO/N=C\c1ccc(-c2ccccc2)cc1` gave an IC50 [2] of 853 nM.

`NC(=O)C(=O)CCCCCCOc1ccc(-c2ccccc2)cc1` showed an IC50 [2] greater than 50 nM.

`COC(=O)C(=O)CCCCCCOc1ccc(-c2ccccc2)cc1` gave an IC50 [2] of 0.062 nM.

For `CNC(=O)C(=O)CCCCCCC(=O)Nc1nc2ccccc2s1`, the IC50 [1] was 13000 nM, the IC50 [2] was 133 nM and the IC50 [3] was 14000 nM.

For `CN(C)CCNC(=O)C(=O)CCCCCCOc1ccc(-c2ccccc2)cc1`, the IC50 [2] was greater than 50 nM.

`COC(=O)C(=O)CCCCCOc1ccc(-c2ccccc2)cc1` was tested, and the IC50 [2] was 0.082 nM.

`CNC(=O)C(=O)CCCCCCC(=O)Nc1ccc2ccccc2c1` was tested, and the IC50 [1] was 17000 nM, the IC50 [2] was 9.4 nM and the IC50 [3] was 22000 nM.

Molecule `CCNC(=O)C(=O)CCCCCCOc1ccc(-c2ccccc2)cc1` has an IC50 [2] of 4.9 nM.

Molecule `CNC(=O)C(=O)CCCCCCC(=O)Nc1ccccc1` has an IC50 [2] of 338 nM.

`CNC(=O)C(=O)CCCCCCS(=O)(=O)c1ccc(-c2ccccc2)cc1` showed an IC50 [2] of 143 nM.

`CNC(=O)C(=O)CCCCCCC(=O)Nc1nc(-c2ccccc2)cs1` gave an IC50 [1] of 1200 nM, an IC50 [2] of 11 nM and an IC50 [3] of 3100 nM.

Molecule `CNC(=O)C(=O)C#CCCCCOc1ccc(-c2ccccc2)cc1` has an IC50 [2] greater than 1000 nM.

Molecule `O=C(O)C(=O)CCCCCCOc1ccc(-c2ccccc2)cc1` has an IC50 [2] of 3.7 nM.

`CNC(=O)C(=O)CCCCCCC(=O)Nc1cccc(-c2ccccc2)c1` was tested, and the IC50 [2] was 3.7 nM.

`CNC(=O)C(=O)CCCCCCC(=O)Nc1ccc(-c2ccccc2)cc1` was tested, and the IC50 [2] was 201 nM.

`CNC(=O)C(=O)COCCCCOc1ccc(-c2ccccc2)cc1` gave an IC50 [2] greater than 10000 nM.

`CNC(=O)C(=O)CCCCCCC(=O)Nc1nc(-c2ccncc2)cs1` was tested, and the IC50 [1] was 670 nM and the IC50 [3] was 2000 nM.

With `CNC(=O)C(=O)CCCCCCC(=O)Nc1nc(-c2ccc(OC)cc2)cs1` the IC50 [1] was 2700 nM, the IC50 [2] was 9.1 nM and the IC50 [3] was 5800 nM.

With `CNC(=O)C(=O)CCCCCCOc1ccc(-c2ccccc2)cc1` the IC50 [2] was 0.11 nM.

With `CNC(=O)C(=O)CCCCCCC(=O)Nc1nc(-c2ccc(CCN(C)C)cc2)cs1` the IC50 [1] was 120 nM, the IC50 [2] was 3.1 nM and the IC50 [3] was 160 nM.

Work on `COC(=O)C(=O)CCCCCCCOc1ccc(-c2ccccc2)cc1` yielded an IC50 [2] of 0.109 nM.

For `CNC(=O)C(=O)CCCCCCNC(=O)c1cccc(-c2ccccc2)c1`, the IC50 [2] was 21 nM.

`O=C(O)CNC(=O)C(=O)CCCCCCOc1ccc(-c2ccccc2)cc1` was tested, and the IC50 [2] was greater than 50 nM.

`CNC(=O)C(=O)CCCCCCC(=O)Nc1cnc2ccccc2c1` was tested, and the IC50 [1] was 2900 nM, the IC50 [2] was 9.5 nM and the IC50 [3] was 4000 nM.

Work on `CNC(=O)C(=O)CCCCCCC(=O)Nc1ccc2cc[nH]c2c1` yielded an IC50 [1] of 3400 nM, an IC50 [2] of 18 nM and an IC50 [3] of 4500 nM.

In the case of `CN(C)C(=O)C(=O)CCCCCCOc1ccc(-c2ccccc2)cc1`, the IC50 [2] is reported as greater than 5 nM.
